{
  "source": "patent US12622965B2",
  "about": "“Therapeutical tools and methods using temperature-sensitive receptors for treating blindness” (FRIEDRICH MIESCHER INSTITUTE FOR BIOMEDICAL RESEARCH, priority 2020, dated 2026)",
  "key": {"[1]": {"test_system": "HEK cells expressing TRPV1.459-6x-His, TRPV1.465-6x-His or untagged TRPV1", "assay": "whole cell voltage clamp in HEK cells expressing TRPV1 variants, activated by capsaicin", "assay_type": "cell-based", "settings": "TRPV1 agonist capsaicin 2.5 μM bath applied; voltage clamp −60 mV; mean±s.e.m", "description": "First, they developed a system based on rat TRPV1 channels and gold nanorods with absorption maxima at 915 nm. 915 nm was selected to ensure low water absorption. […] To measure if tagged channels are functional, they performed whole cell voltage clamp in HEK cells expressing TRPV1.459-6x-His, TRPV1.465-6x-His or untagged TRPV1 while activating the channels by TRPV1 agonist capsaicin. The size of evoked currents were similar between TRPV1.465-6x-His and TRPV1 (Mann-Whitney U test, P=0.8551; TRPV1.465-6x-His, 1633±164 pA, […] 15 cells; TRPV1, 1766±276 pA, n=14 cells; mean±s.e.m), but less in TRPV1.459-6x-His (Mann-Whitney U test, P=0.0207; TRPV1.459-6x-His, 976±118 pA, n=19 cells; mean±s.e.m). Therefore, they used TRPV1.465-6x-His (rTRPV1) in subsequent experiments.\nFor HEK293T cell experiments, cells were maintained at 37° C. on poly-D-lysine/laminin coated coverslips (GG-12-Laminin, Neuvitro) in DMEM supplemented with 10% fetal bovine serum. Cells were transfected with plasmids containing TRP variants using branched PEI. Cells were perfused in oxygenated Ringer's medium containing 110 mM NaCl, 2.5 mM KCl, 1 mM CaCl2, 1.6 mM MgCl2, 10 mM D-glucose and 22 mM NaHCO3 at ˜36° C. for the duration of the experiment. […] Data was analyzed offline using MATLAB (MathWorks)."}, "[2]": {"test_system": "human retina (ONL, INL, GCL cells)", "assay": "two-photon acousto-optic calcium imaging of NIR responses in ex vivo human retina", "assay_type": "cell-based", "description": "High-speed three-dimensional acousto-optic calcium imaging of neuronal network activity permits observation of response propagation from photoreceptors through the retina. To detect NIR light driven responses in the human retina, the inventors deposited nanorods (Abs 915 nm) over the photoreceptor side of the retina and performed two-photon calcium imaging of individual cells in the outer nuclear layer (ONL), which hosts photoreceptors, the inner nuclear layer (INL), which hosts horizontal, bipolar and amacrine cells, and the ganglion cell layer (GCL) which hosts ganglion and amacrine cells. To record calcium signals, the fluorescent calcium dye Oregon Green 488 BAPTA-1 (OGB-1) was electroporated into the cells. […] In cells of the INL and GCL layers, bidirectional changes in the calcium signal indicate activation of excitatory and inhibitory retinal pathways. More cells responded in the GCL than in the ONL, reflecting convergent retinal circuit organization (Chi Squared Test, P=0.0006; GCL, n=41 responding neurons, n=83 total neurons, 49.4%; ONL, n=16 responding photoreceptors, n=74 total photoreceptors, 21.6%). There was no significant difference in number of NIR light responding cells between INL and GCL (Chi Squared Test, P=0.89; INL, n=46 responding neurons, n=93 total neurons, 49.5%).\nHuman retinal tissue was obtained after corneal tissue harvest from adult multi-organ donors with no reported history of eye disease, n=2 eyes from n=2 donors. After cornea isolation, the iris, lens, and vitreous were removed and the retina was submerged in flowing Ames' medium (Sigma, A1420) saturated with 95% O2 and 5% CO2. […] Samples used for tissue culture were of mid-peripheral origin, midway between the fovea and the anterior retinal border. For organotypic retinal culture, 4×4 mm retinal pieces were isolated and placed photoreceptor-side-up on polycarbonate membranes inserts (Corning, 3412). The cultures were maintained at 37° C. and 5% CO2 in DMEM/F12 medium (Thermo Fisher Scientific), supplemented with 0.1% bovine serum albumin (BSA), 10 μM O-acetyl-L-carnitine hydrochloride, 1 mM fumaric acid, 0.5 mM galactose, 1 mM glucose, 0.5 mM glycine, 10 mM HEPES, 0.05 mM mannose, 13 mM sodium bicarbonate, 3 mM taurine, 0.1 mM putrescine dihydrochloride, 0.35 μM retinol, 0.3 μM retinyl acetate, 0.2 μM (+)-α-tocopherol, 0.5 mM ascorbic acid, 0.05 μM sodium selenite, 0.02 μM hydrocortisone, 0.02 μM progesterone, 1 μM insulin, 0.003 μM 3,3′,5-triiodo-L-thyronine, 2 000 U penicillin and 2 mg streptomycin (Sigma). For AAV infection, 40 μL of virus was applied per retinal explant 4-5 days after plating. The culture medium was renewed every 48 hours. Light responses were recorded from samples 8 weeks post-mortem. […]"}, "[3]": {"settings": "nanorods (Abs 915 nm) on photoreceptor side, 8 weeks post-mortem"}},
  "data": [
    {"substance": "TRPV1.465-6x-His: rat TRPV1 channel with 6x-His epitope tag inserted in the first extracellular loop after amino acid 465; delivered by AAV", "values": [
      {"measurement": "size of evoked currents", "setting": "[1]", "value": "1633±164", "unit": "pA"},
      {"measurement": "NIR light responding cells in the GCL", "setting": "[2]; [3]", "value": 49.4, "unit": "%"},
      {"measurement": "NIR light responding cells in the INL", "setting": "[2]; [3]", "value": 49.5, "unit": "%"},
      {"measurement": "NIR light responding photoreceptors in the ONL", "setting": "[2]; [3]", "value": 21.6, "unit": "%"},
      {"measurement": "NIR light-evoked activation in retinal explants", "setting": "[2]; rTRPV1 transduced explants (n=3), nanorods (Abs 915 nm)", "value": "NIR light-evoked activation could be detected"}
    ]}
  ]
}
